Test results: ChEMBL document CHEMBL1201861, “Genomics of Drug Sensitity in Cancer screening data, Wellcome Trust Sanger Institute”

Columns and labels:
Assay in all cases: cells
[1] = tested on: D-502MG; assay type: functional, cell-based, Homo sapiens; details: Homo sapiens, D-502MG
Description: SANGER: Inhibition of human D-502MG cell growth in a cell viability assay.

[2] = tested on: D-542MG; assay type: functional, cell-based, Homo sapiens; details: Homo sapiens, D-542MG
Description: SANGER: Inhibition of human D-542MG cell growth in a cell viability assay.

[3] = tested on: GI-ME-N; assay type: functional, cell-based, Homo sapiens; details: Homo sapiens, GI-ME-N;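 further: growth inhibition of human GI-ME-N cells, read out with a cell viability assay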
Description: SANGER: Inhibition of human GI-ME-N cell growth in a cell viability assay.

[4] = tested on: JVM-3; assay type: functional, cell-based; details: Homo sapiens;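 further: growth inhibition of human JVM-3 cells, read out with a cell viability assay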
Description: SANGER: Inhibition of human JVM-3 cell growth in a cell viability assay.

[5] = tested on: KALS-1; assay type: functional, cell-based, Homo sapiens; details: Homo sapiens, KALS-1;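 further: growth inhibition of KALS-1 cells, determined with a cell viability assay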
Description: SANGER: Inhibition of human KALS-1 cell growth in a cell viability assay.

[6] = tested on: KMOE-2; assay type: functional, cell-based; details: Homo sapiens;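 further: growth inhibition of human KMOE-2 cells, read out with a cell viability assay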
Description: SANGER: Inhibition of human KMOE-2 cell growth in a cell viability assay.

[7] = tested on: KP-N-YN; assay type: functional, cell-based; details: Homo sapiens;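 further: growth inhibition of KP-N-YN cells, read out with a cell viability assay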
Description: SANGER: Inhibition of human KP-N-YN cell growth in a cell viability assay.

[8] = tested on: KS-1; assay type: functional, cell-based, Homo sapiens; details: Homo sapiens, KS-1;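 further: growth inhibition of KS-1 cells, read out with a cell viability assay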
Description: SANGER: Inhibition of human KS-1 cell growth in a cell viability assay.

[9] = tested on: L-363; assay type: functional, cell-based; details: Homo sapiens
Description: SANGER: Inhibition of human L-363 cell growth in a cell viability assay.

[10] = tested on: MHH-NB-11; assay type: functional, cell-based, Homo sapiens; details: Homo sapiens, MHH-NB-11;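 further: growth inhibition of human MHH-NB-11 cells, read out by a cell viability assay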
Description: SANGER: Inhibition of human MHH-NB-11 cell growth in a cell viability assay.

[11] = tested on: MOLT-16; assay type: functional, cell-based; details: Homo sapiens;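 further: growth inhibition of human MOLT-16 cells, read out with a cell viability assay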
Description: SANGER: Inhibition of human MOLT-16 cell growth in a cell viability assay.

[12] = tested on: MZ7-mel; assay type: functional, cell-based, Homo sapiens; details: Homo sapiens, MZ7-mel;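 further: growth inhibition of human MZ7-mel cells, measured by a cell viability assay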
Description: SANGER: Inhibition of human MZ7-mel cell growth in a cell viability assay.

[13] = tested on: NCI-H1770; assay type: functional, cell-based; details: Homo sapiens;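 further: growth inhibition of NCI-H1770 cells determined with a viability readout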
Description: SANGER: Inhibition of human NCI-H1770 cell growth in a cell viability assay.

[14] = tested on: NCI-H69; assay type: functional, cell-based; details: Homo sapiens;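 further: growth inhibition of the cell line, read out with a cell viability assay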
Description: SANGER: Inhibition of human NCI-H69 cell growth in a cell viability assay.

[15] = tested on: SBC-1; assay type: functional, cell-based; details: Homo sapiens;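 further: cell viability assay measuring growth inhibition of the SBC-1 cell line, IC50 being the concentration that halves growth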
Description: SANGER: Inhibition of human SBC-1 cell growth in a cell viability assay.

[16] = tested on: SK-LMS-1; assay type: functional, cell-based, Homo sapiens; details: Homo sapiens, SK-LMS-1;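 further: growth inhibition of human SK-LMS-1 cells, read out with a cell viability assay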
Description: SANGER: Inhibition of human SK-LMS-1 cell growth in a cell viability assay.

[17] = tested on: TE-9; assay type: functional, cell-based, Homo sapiens; details: Homo sapiens, TE-9;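 further: cell growth inhibition, measured with a cell viability readout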
Description: SANGER: Inhibition of human TE-9 cell growth in a cell viability assay.

[18] = tested on: TGBC1TKB; assay type: functional, cell-based, Homo sapiens; details: Homo sapiens, TGBC1TKB;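 further: growth inhibition of TGBC1TKB cells, read out by a cell viability assay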
Description: SANGER: Inhibition of human TGBC1TKB cell growth in a cell viability assay.

[19] = tested on: UACC-257; assay type: functional, cell-based, Homo sapiens; details: Homo sapiens, UACC-257
Description: SANGER: Inhibition of human UACC-257 cell growth in a cell viability assay.

[20] = tested on: VA-ES-BJ; assay type: functional, cell-based, Homo sapiens; details: Homo sapiens, VA-ES-BJ;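 further: growth inhibition of the VA-ES-BJ cell line, read out by a cell viability assay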
Description: SANGER: Inhibition of human VA-ES-BJ cell growth in a cell viability assay.

[21] = tested on: Ca9-22; assay type: functional, cell-based, Homo sapiens; details: Homo sapiens, Ca9-22;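 further: growth inhibition of Ca9-22 cells, read out with a cell viability assay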
Description: SANGER: Inhibition of human Ca9-22 cell growth in a cell viability assay.

[22] = tested on: HCC1806; assay type: functional, cell-based, Homo sapiens; details: Homo sapiens, HCC1806;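 further: growth inhibition of the cancer cell line, determined with a cell viability assay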
Description: SANGER: Inhibition of human HCC1806 cell growth in a cell viability assay.

[23] = tested on: HCC1954; assay type: functional, cell-based, Homo sapiens; details: Homo sapiens, HCC1954;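 further: growth inhibition of human HCC1954 cells, read out with a cell viability assay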
Description: SANGER: Inhibition of human HCC1954 cell growth in a cell viability assay.

[24] = tested on: HT-1080; assay type: functional, cell-based, Homo sapiens; details: Homo sapiens, HT-1080
Description: SANGER: Inhibition of human HT-1080 cell growth in a cell viability assay.

[25] = tested on: KU-19-19; assay type: functional, cell-based, Homo sapiens; details: Homo sapiens, KU-19-19
Description: SANGER: Inhibition of human KU-19-19 cell growth in a cell viability assay.

[26] = tested on: KYSE-270; assay type: functional, cell-based, Homo sapiens; details: Homo sapiens, KYSE-270;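 further: cell growth inhibition measured with a viability assay in the human KYSE-270 line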
Description: SANGER: Inhibition of human KYSE-270 cell growth in a cell viability assay.

[27] = tested on: MC-IXC; assay type: functional, cell-based, Homo sapiens; details: Homo sapiens, MC-IXC;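 further: growth inhibition of MC-IXC cells, read out with a cell viability assay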
Description: SANGER: Inhibition of human MC-IXC cell growth in a cell viability assay.

[28] = tested on: MEL-HO; assay type: functional, cell-based, Homo sapiens; details: Homo sapiens, MEL-HO
Description: SANGER: Inhibition of human MEL-HO cell growth in a cell viability assay.

[29] = tested on: MIA PaCa-2; assay type: functional, cell-based, Homo sapiens; details: Homo sapiens, MIA PaCa-2;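 further: growth inhibition of MIA PaCa-2 cells, read out with a cell viability assay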
Description: SANGER: Inhibition of human MIA-PaCa-2 cell growth in a cell viability assay.

[30] = tested on: NCI-H1437; assay type: functional, cell-based, Homo sapiens; details: Homo sapiens, NCI-H1437;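 further: growth inhibition of human NCI-H1437 cells, read out by a cell viability assay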
Description: SANGER: Inhibition of human NCI-H1437 cell growth in a cell viability assay.

[31] = tested on: NCI-H1623; assay type: functional, cell-based, Homo sapiens; details: Homo sapiens, NCI-H1623;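 further: cell viability assay used as the read-out for growth inhibition of NCI-H1623 cells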
Description: SANGER: Inhibition of human NCI-H1623 cell growth in a cell viability assay.

[32] = tested on: NCI-H1793; assay type: functional, cell-based, Homo sapiens; details: Homo sapiens, NCI-H1793;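 further: cell growth inhibition, read out by a cell viability assay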
Description: SANGER: Inhibition of human NCI-H1793 cell growth in a cell viability assay.

[33] = tested on: NCI-H292; assay type: functional, cell-based, Homo sapiens; details: Homo sapiens, NCI-H292;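 further: growth inhibition of NCI-H292 cells, read out with a cell viability assay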
Description: SANGER: Inhibition of human NCI-H292 cell growth in a cell viability assay.

[34] = tested on: NCI-H358; assay type: functional, cell-based, Homo sapiens; details: Homo sapiens, NCI-H358;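 further: growth inhibition of NCI-H358 human cells, read out with a cell viability assay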
Description: SANGER: Inhibition of human NCI-H358 cell growth in a cell viability assay.

[35] = tested on: NCI-N87; assay type: functional, cell-based, Homo sapiens; details: Homo sapiens, NCI-N87;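 further: growth inhibition of human NCI-N87 cells, read out with a cell viability assay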
Description: SANGER: Inhibition of human NCI-N87 cell growth in a cell viability assay.

[36] = tested on: NY; assay type: functional, cell-based, Homo sapiens; details: Homo sapiens, NY
Description: SANGER: Inhibition of human NY cell growth in a cell viability assay.

[37] = tested on: OE33; assay type: functional, cell-based, Homo sapiens; details: Homo sapiens, OE33;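 further: growth inhibition of human OE33 cells, measured by a cell viability assay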
Description: SANGER: Inhibition of human OE33 cell growth in a cell viability assay.

[38] = tested on: PANC-03-27; assay type: functional, cell-based, Homo sapiens; details: Homo sapiens, PANC-03-27
Description: SANGER: Inhibition of human PANC-03-27 cell growth in a cell viability assay.

[39] = tested on: RVH-421; assay type: functional, cell-based, Homo sapiens; details: Homo sapiens, RVH-421
Description: SANGER: Inhibition of human RVH-421 cell growth in a cell viability assay.

[40] = tested on: SK-HEP1; assay type: functional, cell-based, Homo sapiens, SK-HEP-1; details: Homo sapiens, SK-HEP1;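 further: cell viability readout used to quantify reduction in proliferation of human SK-HEP-1 cells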
Description: SANGER: Inhibition of human SK-HEP-1 cell growth in a cell viability assay.

[41] = tested on: SK-MEL3; assay type: functional, cell-based, Homo sapiens, SK-MEL-3; details: Homo sapiens, SK-MEL3;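 further: growth inhibition of human SK-MEL-3 cells, read out with a cell viability assay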
Description: SANGER: Inhibition of human SK-MEL-3 cell growth in a cell viability assay.

[42] = tested on: SN12C; assay type: functional, cell-based, Homo sapiens; details: Homo sapiens, SN12C;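 further: growth inhibition of human SN12C cells, measured by a cell viability assay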
Description: SANGER: Inhibition of human SN12C cell growth in a cell viability assay.

[43] = tested on: SNU-449; assay type: functional, cell-based, Homo sapiens; details: Homo sapiens, SNU-449
Description: SANGER: Inhibition of human SNU-449 cell growth in a cell viability assay.

[44] = tested on: SW1990; assay type: functional, cell-based, Homo sapiens; details: Homo sapiens, SW1990;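 further: cell growth inhibition determined with a viability assay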
Description: SANGER: Inhibition of human SW1990 cell growth in a cell viability assay.

[45] = tested on: T84; assay type: functional, cell-based, Homo sapiens; details: Homo sapiens, T84;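 further: growth inhibition measured with a cell viability readout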
Description: SANGER: Inhibition of human T84 cell growth in a cell viability assay.

[46] = tested on: CWR22R; assay type: functional, cell-based, Homo sapiens; details: Homo sapiens, 22Rv1;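 further: growth inhibition of 22Rv1 cells, read out with a cell viability assay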
Description: SANGER: Inhibition of human 22RV1 cell growth in a cell viability assay.

[47] = tested on: 639-V; assay type: functional, cell-based, Homo sapiens; details: Homo sapiens, 639-V;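 further: growth inhibition of 639-V cells, read out with a cell viability assay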
Description: SANGER: Inhibition of human 639-V cell growth in a cell viability assay.

[48] = tested on: CAKI-1; assay type: functional, cell-based, Homo sapiens; details: Homo sapiens, CAKI-1;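 further: growth inhibition of CAKI-1 cells, measured by a cell viability assay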
Description: SANGER: Inhibition of human CAKI-1 cell growth in a cell viability assay.

[49] = tested on: CAL-85-1; assay type: functional, cell-based; details: Homo sapiens;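 further: growth inhibition of human CAL-85-1 cells, read out with a cell viability assay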
Description: SANGER: Inhibition of human CAL-85-1 cell growth in a cell viability assay.

[50] = tested on: CAPAN-1; assay type: functional, cell-based, Homo sapiens; details: Homo sapiens, CAPAN-1;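 further: growth suppression of CAPAN-1 cells, read out by a cell viability assay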
Description: SANGER: Inhibition of human CAPAN-1 cell growth in a cell viability assay.

With CC1=C2C[C@H]3[C@@H](CC=C4C[C@@H](O)CC[C@@]43C)[C@@H]2CC[C@]12O[C@@H]1C[C@H](C)CN[C@H]1[C@H]2C [CYCLOPAMINE] as the molecule, how does the IC50 [1] read?
Its IC50 is over 16000 nM.

What about the IC50 [2] of the same molecule?
The IC50 was over 16000 nM.

What about the IC50 [3] of the same molecule?
The IC50 was over 16000 nM.

What about the IC50 [4] of the same molecule?
The IC50 was over 16000 nM.

What about the IC50 [5] of the same molecule?
The IC50 was over 16000 nM.

What about the IC50 [6] of the same molecule?
Its IC50 is over 16000 nM.

What about the IC50 [7] of the same molecule?
Its IC50 is over 16000 nM.

What about the IC50 [8] of the same molecule?
The IC50 was over 16000 nM.

What about the IC50 [9] of the same molecule?
Its IC50 is over 16000 nM.

What about the IC50 [10] of the same molecule?
The IC50 was over 16000 nM.

What about the IC50 [11] of the same molecule?
The IC50 was over 16000 nM.

What about the IC50 [12] of the same molecule?
Its IC50 is over 16000 nM.

And the IC50 [13]?
Its IC50 is over 16000 nM.

What about the IC50 [14] of the same molecule?
Its IC50 is over 16000 nM.

And the IC50 [15]?
The IC50 was over 16000 nM.

What about the IC50 [16] of the same molecule?
Its IC50 is over 16000 nM.

What about the IC50 [17] of the same molecule?
Its IC50 is over 16000 nM.

And the IC50 [18]?
Its IC50 is over 16000 nM.

What about the IC50 [19] of the same molecule?
The IC50 was over 16000 nM.

What about the IC50 [20] of the same molecule?
Its IC50 is over 16000 nM.

Cc1cnc(-c2cnc(NCCNc3ccc(C#N)cn3)nc2-c2ccc(Cl)cc2Cl)[nH]1 [LADUVIGLUSIB] was tested. Which IC50 [21] did it give?
The IC50 was over 2560 nM.

And the IC50 [1]?
The IC50 was over 2560 nM.

What about the IC50 [2] of the same molecule?
Its IC50 is over 2560 nM.

And the IC50 [3]?
Its IC50 is over 2560 nM.

What about the IC50 [22] of the same molecule?
Its IC50 is over 2560 nM.

And the IC50 [23]?
The IC50 was over 2560 nM.

And the IC50 [24]?
The IC50 was over 2560 nM.

What about the IC50 [4] of the same molecule?
Its IC50 is over 2560 nM.

And the IC50 [5]?
Its IC50 is over 2560 nM.

And the IC50 [6]?
The IC50 was over 2560 nM.

What about the IC50 [8] of the same molecule?
Its IC50 is over 2560 nM.

And the IC50 [25]?
Its IC50 is over 2560 nM.

And the IC50 [26]?
Its IC50 is over 2560 nM.

What about the IC50 [9] of the same molecule?
Its IC50 is over 2560 nM.

What about the IC50 [27] of the same molecule?
The IC50 was over 2560 nM.

And the IC50 [28]?
The IC50 was over 2560 nM.

What about the IC50 [10] of the same molecule?
The IC50 was over 2560 nM.

And the IC50 [29]?
Its IC50 is 1760 nM.

And the IC50 [11]?
Its IC50 is over 2560 nM.

What about the IC50 [12] of the same molecule?
The IC50 was over 2560 nM.

What about the IC50 [30] of the same molecule?
Its IC50 is over 2560 nM.

And the IC50 [31]?
Its IC50 is over 2560 nM.

What about the IC50 [13] of the same molecule?
The IC50 was over 2560 nM.

What about the IC50 [32] of the same molecule?
The IC50 was over 2560 nM.

And the IC50 [33]?
Its IC50 is over 2560 nM.

And the IC50 [34]?
Its IC50 is over 2560 nM.

What about the IC50 [14] of the same molecule?
The IC50 was over 2560 nM.

And the IC50 [35]?
The IC50 was over 2560 nM.

And the IC50 [36]?
The IC50 was over 2560 nM.

And the IC50 [37]?
Its IC50 is over 2560 nM.

What about the IC50 [38] of the same molecule?
The IC50 was over 2560 nM.

What about the IC50 [39] of the same molecule?
The IC50 was over 2560 nM.

What about the IC50 [15] of the same molecule?
Its IC50 is over 2560 nM.

And the IC50 [40]?
The IC50 was over 2560 nM.

And the IC50 [16]?
Its IC50 is over 2560 nM.

What about the IC50 [41] of the same molecule?
Its IC50 is over 2560 nM.

What about the IC50 [42] of the same molecule?
The IC50 was over 2560 nM.

And the IC50 [43]?
Its IC50 is over 2560 nM.

And the IC50 [44]?
Its IC50 is over 2560 nM.

And the IC50 [45]?
The IC50 was over 2560 nM.

And the IC50 [46]?
Its IC50 is over 2560 nM.

What about the IC50 [47] of the same molecule?
Its IC50 is over 2560 nM.

What about the IC50 [48] of the same molecule?
The IC50 was over 2560 nM.

And the IC50 [49]?
The IC50 was over 2560 nM.

And the IC50 [17]?
The IC50 was over 2560 nM.

And the IC50 [18]?
The IC50 was over 2560 nM.

What about the IC50 [19] of the same molecule?
The IC50 was over 2560 nM.

What about the IC50 [20] of the same molecule?
The IC50 was over 2560 nM.

And the IC50 [50]?
Its IC50 is over 2560 nM.
